Columns and labels:
INDY [1] = target: T1, INDY (Homo sapiens, UniProt Q86YT5); assay: 14C-citrate uptake in HepG2 cells endogenously expressing INDY (NaCT); assay type: cell-based; conditions: endogenous INDY
Description: (§1) The compound was obtained by screening of a library containing more than 50,000 lead-like compounds and fragments. The library was tested using a functional citrate uptake assay with HEK293 cells overexpressing recombinant human INDY. The following hit confirmation was conducted in the same assay system. To confirm the activity of selected compounds on the target INDY another cell assay was conducted. In this assay system citrate uptake was measured using HepG2 cells which endogenously express INDY. Furthermore selectivity of selected compounds was tested for two other transporters in different assay systems. The first transporter was the glutamate transporter GLT-1 tested in a glutamate uptake assays using HEK293 cells overexpressing recombinant human GLT-1. The second transporter was the glucose transporter GLUT1 tested in a glucose uptake assay using Huh-7 cells which endogenously express GLUT1. Compounds were considered to be selective with an at least 5-fold higher activity for INDY than for the other two transporters.
(§2) Cells were maintained in cell medium using cell culture grade flasks (CellSTACK Corning, 500 cm2 dishes or T175 depending on cell number). The selection antibiotic and G418 (800 μg/ml) was added during cultivation but not for seeding into assay plates. For splitting, cells were washed with PBS (w/o Ca2+, Mg2+, phenol red) and detached with Trypsin/EDTA. Throughout cultivation cells were kept sub-confluent. Detached cells (50,000 cells/well) were seeded in 96-well plates (white, clear bottom from Corning #655098) and incubated over night before usage in the assay. The following media were used. For HEK293 cells expressing INDY MEM (PAA)+10% FCS+1×P/S+2 mM L-Gln; for HEK293 cells expressing GLT-1 DMEM (Gibco)+10% FCS+400 µg/ml G418; for Huh7 cells DMEM (Gibco)+10% FCS+2 mM L-Gin (+1×P/S); for HepG2 cells MEM (PAA, Cat # E15-024)+10% FCS+2 mM L-Gin+1×NEAA+1 mM Na-Pyruvat
(§3) The following assay buffers for the particular uptake reaction were used. Citrate uptake buffer: 120 mM NaCl, 5.4 mM KCl, 0.8 mM MgSO4, 5 mM glucose, 1.8 mM CaCl2, 25 mM Hepes, 25 mM MES, pH 6.5. Glutamate uptake buffer: HBSS, 1 mM CaCl2, 1 mM MgCl2, 20 mM Hepes pH 7.4. Glucose uptake buffer: 25 mM Hepes+25 mM MES pH 7.4, 120 mM NaCl, 5.4 mM KCl, 1.8 mM CaCl2, 0.8 mM MgSO4.
INDY mediated citrate uptake was also determined in HepG2 cells. To determine the uptake of ^14C labelled citrate into cells, HepG2 cells endogenously expressing human NaCT were used. (Gopal et al. 2007 Am J Physiol Gastrointest Liver Physiol 292).
HepG2 cells were seeded into white clear-bottom 96-well plates (50,000/well) coated with collagen and incubated at 37° C. for 16-24 hours. After that plates were washed once with assay buffer using automated washing/LS 405 Selectors, BioTek ending with a buffer volume of 40 μl. Then 5 μl of compound solution in assay buffer was added and incubated for 5 min at 37° C. in cell incubator, HERA cell Heraeus. Afterwards 10 μl of substrate 14C-citrate (10 nM) were added and incubated for another 90 min at 37° C. in cell incubator, HERAcell. Then plates were washed 3× with 200 μl buffer and […] cell lysis induced by adding 50 μl ice-cold NaOH (100 mM). Plates were incubated for 25 min at RT on a plate shaker and afterwards 200 μl scintillation fluid was added and incubated for 15 min on a plate shaker at RT and for another 15 min without shaking at RT. Plates were measured using a TopCount system. As a positive control 5 mM citrate was applied. It is possible to use this assay also in analogy in a 384-well plate format.

INDY [2] = target: T1, INDY; assay: 14C-citrate uptake in HEK293 cells overexpressing recombinant human INDY (NaCT); assay type: cell-based; parameters: expressed in transfected cells; host or cells: HEK293
Description: as §1, §2, §3
INDY mediated citrate uptake was determined in HEK293 cells. To determine the uptake of ^14C labelled citrate into cells, HEK293 cells over-expressing human NaCT were used. Cloning of human NaCT was done in analogy as described in Birkenfeld et al. (Birkenfeld et al., 2011, Cell Metabolism 14, 184-195, 2011).
Human NaCT HEK293 cells were seeded into white clear-bottom 96-well plates (50,000/well) in the presence of 4 μg/ml Poly-D-Lysine and incubated at 37° C. for 16-24 hours. On the days of the assay the plates were washed once with assay buffer using automated washing/LS 405 Selectors, BioTek ending with a buffer volume of 40 μl. Then 5 μl of compound solution in assay buffer was added and incubated for 5-30 min at 37° C. in cell incubator, HERA cell Heraeus. Afterwards 10 μl of substrate 14C-citrate ([…]/[…] per well) were added and incubated for another 20-90 min at 37° C. in cell incubator, HERAcell. Then plates were washed twice with 200 μl ice-cold assay buffer and residual volume was discarded. For cell lysis 50 μl ice-cold NaOH (100 mM) was added and incubated for 15 minutes at RT on a plate shaker. Finally, 200 μl scintillation fluid (scintillator OptiPhase Supermix, Perkin Elmer) was added. After 15 min incubation at RT without shaking, plates were measured using a TopCount reader system (Perkin Elmer). As a positive control 10 mM citrate was applied. It is possible to use this assay also in analogy in a 384-well plate format.

T1 sequence (Q86YT5 whole entry, the tested form may be a part): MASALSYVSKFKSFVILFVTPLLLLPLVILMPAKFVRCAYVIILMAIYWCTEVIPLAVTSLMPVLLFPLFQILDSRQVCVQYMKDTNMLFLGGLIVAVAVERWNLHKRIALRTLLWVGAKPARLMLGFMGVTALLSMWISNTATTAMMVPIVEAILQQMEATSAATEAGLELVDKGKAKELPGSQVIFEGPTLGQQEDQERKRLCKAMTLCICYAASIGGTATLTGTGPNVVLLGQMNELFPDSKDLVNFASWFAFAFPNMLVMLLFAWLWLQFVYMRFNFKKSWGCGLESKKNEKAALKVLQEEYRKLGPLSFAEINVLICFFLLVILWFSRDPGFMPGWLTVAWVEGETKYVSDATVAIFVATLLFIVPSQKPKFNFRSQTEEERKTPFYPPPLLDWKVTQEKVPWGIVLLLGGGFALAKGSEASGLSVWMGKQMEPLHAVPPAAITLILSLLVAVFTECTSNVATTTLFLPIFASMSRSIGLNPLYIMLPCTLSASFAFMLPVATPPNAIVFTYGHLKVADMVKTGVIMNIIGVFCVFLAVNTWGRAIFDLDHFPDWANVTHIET

| IC50 (INDY [1]) | IC50 (INDY [2]) | SMILES |
| --- | --- | --- |
| 11.3 µM |  | O=C(NCc1ccccn1)C1CCN(S(=O)(=O)/C=C/c2ccccc2)CC1 [Example 3, 1-[(E)-2-phenylethenesulfonyl]-N-(pyridin-2-ylmethyl)piperidine-4-carboxamide] |
| 5.7 µM |  | COc1ccc(S(=O)(=O)N2CCC(C(=O)NCc3ccccc3F)CC2)cc1 [Example 4, N-[(2-fluorophenyl)methyl]-1-(4-methoxybenzenesulfonyl) piperidine-4-carboxamide] |
| > 50 µM |  | O=C(NCc1ccccc1F)N1CCN(S(=O)(=O)/C=C/c2ccccc2)CC1 [Example 7, N-[(2-fluorophenyl)methyl]-4-[(E)-2-phenylethenesulfonyl]piperazine-1-carboxamide] |
| > 50 µM |  | CN(Cc1ccccc1F)C(=O)C1CCN(S(=O)(=O)/C=C/c2ccccc2)CC1 [Example 8, N-[(2-fluorophenyl)methyl]-N-methyl-1-[(E)-2-phenylethenesulfonyl]piperidine-4-carboxamide] |
|  | > 20 µM | COC(=O)c1cccc(S(=O)(=O)N2CCC(C(=O)NCc3ccccc3F)CC2)c1 [Example 88, methyl 3-[(4-{[(2-fluorophenyl)methyl]carbamoyl}piperidin-1-yl)sulfonyl]benzoate] |
|  | > 20 µM | COC(=O)c1ccc(S(=O)(=O)N2CCC(C(=O)NCc3ccccc3F)CC2)cc1 [Example 89, methyl 4-[(4-{[(2-fluorophenyl)methyl]carbamoyl}piperidin-1-yl)sulfonyl]benzoate] |
|  | > 20 µM | O=C(O)c1cccc(S(=O)(=O)N2CCC(C(=O)NCc3ccccc3F)CC2)c1 [Example 90, 3-[(4-{[(2-fluorophenyl)methyl]carbamoyl}piperidin-1-yl)sulfonyl]benzoic acid] |
|  | > 20 µM | O=C(O)c1ccc(S(=O)(=O)N2CCC(C(=O)NCc3ccccc3F)CC2)cc1 [Example 91, 4-[(4-{[(2-fluorophenyl)methyl]carbamoyl}piperidin-1-yl)sulfonyl]benzoic acid] |
|  | 16.4 µM | O=C(NCc1ccccn1)C1CCN(S(=O)(=O)c2cccc(OC(F)(F)F)c2)CC1 [Example 93, N-[(pyridin-2-yl)methyl]-1-[3-(trifluoromethoxy)benzenesulfonyl]piperidine-4-carboxamide] |
|  | > 20 µM | O=Cc1ccc(S(=O)(=O)N2CCC(C(=O)NCc3ccccc3F)CC2)cc1 [Example 94, N-[(2-fluorophenyl)methyl]-1-(4-formylbenzenesulfonyl)piperidine-4-carboxamide] |
|  | > 20 µM | NCc1ccccc1CNC(=O)C1CCN(S(=O)(=O)c2cc(Cl)cc(Cl)c2)CC1 [Example 98, N-([2-(aminomethyl)phenyl]methyl)-1-(3,5-dichlorobenzenesulfonyl)piperidine-4-carboxamide] |
|  | > 20 µM | O=C(NCc1ccccc1F)C1CCN(S(=O)(=O)c2ccc(CO)cc2)CC1 [Example 100, N-[(2-fluorophenyl)methyl]-1-[4-(hydroxymethyl)benzenesulfonyl]piperidine-4-carboxamide] |
|  | > 20 µM | CN(C)CCOc1ccc(S(=O)(=O)N2CCC(C(=O)NCc3ccccc3F)CC2)cc1 [Example 102, 1-(4-[2-(dimethylamino)ethoxy]benzenesulfonyl)-N-[(2-fluorophenyl)methyl]piperidine-4-carboxamide] |
|  | > 20 µM | O=C(NCc1ccc(CO)cc1)C1CCN(S(=O)(=O)c2ccc(C(F)(F)F)cc2)CC1 [Example 104, N-([4-(hydroxymethyl)phenyl]methyl)-1-[4-(trifluoromethyl)benzenesulfonyl]piperidine-4-carboxamide] |
|  | > 20 µM | O=C(NCc1ccccc1F)C1CCN(S(=O)(=O)c2ccc(CN3CCCC3)cc2)CC1 [Example 105, N-[(2-fluorophenyl)methyl]-1-{4-[(pyrrolidin-1-yl)methyl]benzenesulfonyl}piperidine-4-carboxamide] |
|  | 11.1 µM | CC(=O)c1cccc(S(=O)(=O)N2CCC(C(=O)NCc3ccccc3F)CC2)c1 [Example 106, 1-(3-acetylbenzenesulfonyl)-N-[(2-fluorophenyl)methyl]piperidine-4-carboxamide] |
|  | 13.2 µM | CC(O)c1cccc(S(=O)(=O)N2CCC(C(=O)NCc3ccccc3F)CC2)c1 (stereo not shown) [Example 107, N-[(2-fluorophenyl)methyl]-1-[3-(1-hydroxyethyl)benzenesulfonyl]piperidine-4-carboxamide] |
|  | 20.4 µM | C/C(=N\O)c1cccc(S(=O)(=O)N2CCC(C(=O)NCc3ccccc3F)CC2)c1 [Example 108, N-[(2-fluorophenyl)methyl]-1-{3-[(1E)-1-(hydroxyimino)ethyl]benzenesulfonyl}piperidine-4-carboxamide] |
|  | > 20 µM | CCCNC(C)c1cccc(S(=O)(=O)N2CCC(C(=O)NCc3ccccc3F)CC2)c1 (stereo not shown) [Example 109, N-[(2-fluorophenyl)methyl]-1-{3-[1-(propylamino)ethyl]benzenesulfonyl}piperidine-4-carboxamide] |
|  | > 20 µM | CNC(C)c1cccc(S(=O)(=O)N2CCC(C(=O)NCc3ccccc3F)CC2)c1 (stereo not shown) [Example 110, N-[(2-fluorophenyl)methyl]-1-{3-[1-(methylamino)ethyl]benzenesulfonyl}piperidine-4-carboxamide] |
|  | > 20 µM | CCN(CC)C(C)c1cccc(S(=O)(=O)N2CCC(C(=O)NCc3ccccc3F)CC2)c1 (stereo not shown) [Example 113, 1-{3-[1-(diethylamino)ethyl]benzenesulfonyl}-N-[(2-fluorophenyl)methyl]piperidine-4-carboxamide] |
|  | > 20 µM | O=C(O)c1cccc(CNC(=O)C2CCN(S(=O)(=O)c3cc(Cl)cc(Cl)c3)CC2)c1 [Example 119, 3-({[1-(3,5-dichlorobenzenesulfonyl)piperidin-4-yl]formamido}methyl)benzoic acid] |
|  | 18.8 µM | Cc1cc(S(=O)(=O)N2CCC(C(=O)NCc3ccccn3)CC2)ccc1Cl [Example 121, 1-(4-chloro-3-methylbenzenesulfonyl)-N-[(pyridin-2-yl)methyl]piperidine-4-carboxamide] |
|  | 18.8 µM | Cc1ccc(S(=O)(=O)N2CCC(C(=O)NCc3ccccn3)CC2)cc1Cl [Example 122, 1-(3-chloro-4-methylbenzenesulfonyl)-N-[(pyridin-2-yl)methyl]piperidine-4-carboxamide] |
|  | > 20 µM | CN(Cc1ccccn1)C(=O)C1CCN(S(=O)(=O)c2cc(Cl)cc(Cl)c2)CC1 [Example 128, 1-(3,5-dichlorobenzenesulfonyl)-N-methyl-N-[(pyridin-2-yl)methyl]piperidine-4-carboxamide] |

From patent US20200087258A1, “INHIBITOR OF CITRATE TRANSPORTER AND THEIR USE IN THERAPY” (Eternygen GmbH, priority 2017, published 2020)
